Source: paper PMC7435853, “L-Malate (−2) Protonation State is Required for Efficient Decarboxylation to L-Lactate by the Malolactic Enzyme of Oenococcus oeni” (Molecules, 2020)

Molecular target: T1, malolactic enzyme (MLE) (Oenococcus oeni, UniProt Q04DQ3)
T1 construct: gene OEOE_1564; full-length gene (1626 bp), His-tagged (HisTrap) from pET vector (text says pET28a and pET21a), E. coli BL21(DE3); reported dimer
T1 sequence (Q04DQ3 1-541): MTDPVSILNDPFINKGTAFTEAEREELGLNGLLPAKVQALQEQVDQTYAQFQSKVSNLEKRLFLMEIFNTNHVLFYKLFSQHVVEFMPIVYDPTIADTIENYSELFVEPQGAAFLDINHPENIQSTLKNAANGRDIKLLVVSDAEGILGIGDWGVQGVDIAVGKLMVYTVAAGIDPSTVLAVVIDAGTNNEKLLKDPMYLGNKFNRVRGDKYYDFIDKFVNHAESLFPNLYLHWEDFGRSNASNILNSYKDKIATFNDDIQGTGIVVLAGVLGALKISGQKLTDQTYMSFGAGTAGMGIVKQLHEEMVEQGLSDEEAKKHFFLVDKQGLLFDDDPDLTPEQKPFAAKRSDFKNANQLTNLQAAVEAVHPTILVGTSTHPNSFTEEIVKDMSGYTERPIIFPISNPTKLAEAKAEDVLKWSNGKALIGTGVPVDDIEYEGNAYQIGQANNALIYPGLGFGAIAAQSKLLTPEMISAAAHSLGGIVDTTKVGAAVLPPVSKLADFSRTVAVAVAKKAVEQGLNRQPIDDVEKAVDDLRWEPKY
Experiment: isothermal titration calorimetry
Format: binding
Text: isothermal titration calorimetry on malolactic enzyme (MLE)

Compound: O=C(O)C[C@H](O)C(=O)O [MAL^−, L-malate (−1)]
- Kd: 3190 nM

Compound: O=C(O)C[C@H](O)C(=O)O [MAL^2−, L-malate (−2)]
- Kd: 1290 nM
